Results on 13 molecules are retold here after ChEMBL document CHEMBL1201862, “PubChem BioAssay data set” (2004).

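Briefly, cells in 96-well plates were exposed to five compound concentrations for 48 h, and endpoints were estimated by linear interpolation. GI50 marks 50% less growth.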 Active and inactive are the calls of the source. Rule as the data show it: active = GI50 up to about 1.1 µM and inactive = higher.

Assay in all cases: NCI tumour cell line growth inhibition, 48 h
Test [1] has as its system ACHN.
Test [2] concerns KM-20L2.
The test system of test [3] is 786-0.
In test [4] the test system is SK-MEL-28.
The subject of test [5] is M14.
The subject of test [6] is K562.
Test [7] has as its system Malme-3M.
The subject of test [8] is MOLT-4.
The test system of test [9] is UO-31.
Test [10] deals with HCT-15.
Test [11] deals with LXFL 529.
Test [12] relates to HOP-62.
The test system of test [13] is HOP-92.
Test [14] relates to HT-29.
Test [15] deals with LOX IMVI.
The test system of test [16] is SF-268.

For `COc1c(OC2OC(CO)C(O)C(O)C2O)cc2c(c1OC)-c1ccc(OC)c(=O)cc1[C@@H](NC(C)=O)CC2` (stereo partly specified), the GI50 in [1] was > 100 µM (inactive); in test [2], > 100 µM (inactive); in test [3], > 100 µM (inactive); in test [4], 59.4 µM (inactive); in test [5] it was 76.4 µM (inactive); in [6] it was 52.1 µM (inactive). Further, the GI50 is 61.5 µM (inactive) in test [7]; > 100 µM (inactive) in test [8]; > 100 µM (inactive) in test [9]; > 100 µM in [10]; 54.1 µM (inactive) in test [11]; > 100 µM (inactive) in test [12]. In addition, the GI50 in test [13] is 45.3 µM (inactive); in test [14] it was > 100 µM (inactive); in test [15], > 100 µM (inactive); in test [16], > 56.2 µM (inactive).
On to `C[N+](C)(C)CC(=O)N/N=C(/C=C/c1ccccc1)CC1OC(=O)c2ccccc21` (stereo unspecified), for which the GI50 in test [1], in test [2], in [3], in test [4], in test [5] and in test [6] was > 100 µM (inactive) throughout. For the same molecule, the GI50 was > 100 µM (inactive) in [7]; > 100 µM (inactive) in [8]; > 100 µM (inactive) in [9]; > 100 µM in [10]; > 100 µM (inactive) in test [11]; > 100 µM (inactive) in test [12]. The GI50 is > 10 µM (inactive) in [13], > 10 µM (inactive) in [14], > 10 µM (inactive) in [15] and > 100 µM (inactive) in test [16].
For `NC1=NCC(c2ccccn2)C1c1ccc(F)cc1` (stereo unspecified), the GI50 in test [1], in test [2], in [3], in test [4], in [5] and in test [6] was > 100 µM (inactive) each time. Further, the GI50 in [7], in test [8], in test [9], in test [11], in test [12] and in test [13] was > 100 µM (inactive) each time. Further, the GI50 in [14], in [15] and in test [16] was > 100 µM (inactive) each time.
Consider `C[Si](C)(c1ccccc1)C1CC(=O)CC(=O)C1`, for which the GI50 was > 100 µM (inactive) in test [1]; > 100 µM (inactive) in test [2]; 21.4 µM (inactive) in test [3]; > 100 µM (inactive) in test [4]; > 100 µM (inactive) in test [5]; > 100 µM (inactive) in test [6]. In addition, the GI50 in test [7] was > 100 µM (inactive); in test [8], > 100 µM (inactive); in test [9], 19.9 µM (inactive); in test [10] it was > 100 µM; in test [11], > 100 µM (inactive); in test [12], > 100 µM (inactive). Further, the GI50 in test [14] is > 100 µM (inactive); in test [15], 20.8 µM (inactive); in test [16], > 100 µM (inactive).
For `O=[N+]([O-])c1cccc(S(=O)(=O)N/N=C/c2cc(I)cc([N+](=O)[O-])c2O)c1`, the GI50 in test [1] was 31.5 µM (inactive); in [2] it was 43 µM (inactive); in test [3] it was 31.8 µM (inactive); in test [4], 27.7 µM (inactive); in test [5], 27.2 µM (inactive); in test [6], 29.8 µM (inactive). For the same molecule, the GI50 in [7] was 25.9 µM (inactive); in test [8], 31.5 µM (inactive); in test [9], 26.1 µM (inactive); in test [10] it was 24.5 µM; in test [11] it was 21.5 µM (inactive); in test [12] it was 26.7 µM (inactive). Also, the GI50 in test [13] is 16.8 µM (inactive); in test [14] it was 26.7 µM (inactive); in test [15], 27.9 µM (inactive); in [16], 30.1 µM (inactive).
Turning to `COC(=O)CCC(=O)CC(=O)C(=O)Nc1c(Cl)cc([N+](=O)[O-])cc1Cl`, the GI50 in test [1], in test [2], in test [3], in test [4], in test [5] and in test [6] was > 100 µM (inactive) in each case. The GI50 in test [7] is > 100 µM (inactive); in test [8], > 100 µM (inactive); in test [9] it was > 100 µM (inactive); in test [10], 55.6 µM; in [11] it was > 100 µM (inactive); in [12], > 100 µM (inactive). Also, the GI50 was 38.7 µM (inactive) in test [13], > 100 µM (inactive) in test [14], 52.1 µM (inactive) in [15] and > 100 µM (inactive) in [16].
Turning to `CCOc1ccc2c(c1)[n+]([O-])c(C(N)=O)c(N)[n+]2[O-]`, the GI50 in test [1], in test [2], in [3], in test [4], in test [5] and in [6] was > 100 µM (inactive) each time. For the same molecule, the GI50 in test [7], in test [8], in [9], in test [11], in test [12] and in [13] was > 100 µM (inactive) throughout. The GI50 in test [14] and in test [16] was > 100 µM (inactive) each time.
For the molecule `Cc1ccccc1C(C#N)/C(=N/NC(=O)c1cc2ccccc2cc1O)C(=O)Nc1cccc(Cl)c1` (stereo unspecified), the GI50 in [1] is 16.4 µM (inactive); in test [2] it was 31.1 µM (inactive); in test [3], 7.85 µM (inactive); in test [4], 25.1 µM (inactive); in test [5], 18.6 µM (inactive); in test [6], 9.64 µM (inactive). Further, the GI50 in test [7] is 30.8 µM (inactive); in [8], 10.9 µM (inactive); in test [9], 3.13 µM (inactive); in test [10] it was 22.4 µM; in [11], 20.5 µM (inactive); in test [12] it was 27.5 µM (inactive). For the same molecule, the GI50 is 26.4 µM (inactive) in test [13], 42.1 µM (inactive) in test [14] and 7.69 µM (inactive) in [16].
With `CCOC(=O)[C@H]1Nc2ccc(O)cc2C2c3ccccc3CC21` (stereo partly specified), the GI50 is 51.4 µM (inactive) in test [1]; > 100 µM (inactive) in [2]; 77.8 µM (inactive) in test [3]; 34.8 µM (inactive) in [4]; 59.7 µM (inactive) in [5]; 52.5 µM (inactive) in [6]. Also, the GI50 in test [7] is > 100 µM (inactive); in [8], 33 µM (inactive); in test [9] it was 98.2 µM (inactive); in test [10] it was 72.8 µM; in [11], 42.6 µM (inactive); in test [12] it was > 100 µM (inactive). The GI50 was > 100 µM (inactive) in test [14], 81.3 µM (inactive) in test [15] and > 100 µM (inactive) in test [16].
As to `C[n+]1c2ccccc2c(CNCC(=O)O)c2ccccc21`, the GI50 was 0.61 µM (active) in test [1]; 0.327 µM (active) in test [2]; 1.17 µM (inactive) in test [3]; 3.97 µM (inactive) in [5]; 0.504 µM (active) in test [6]; 11.9 µM (inactive) in test [7]. In addition, the GI50 in test [8] was 0.223 µM (active); in [9] it was 10.9 µM (inactive); in [10], 0.805 µM; in [11], 1.07 µM (active); in [12], 6.27 µM (inactive); in test [13] it was 0.929 µM (active). Besides, the GI50 in [14] was 0.711 µM (active); in [16], 0.459 µM (active).
As for `Cc1ccc(S(=O)(=O)NC2(C=O)CCC(C(C)(C)C)CC2)cc1` (stereo unspecified), the GI50 in test [1] is 32.5 µM (inactive); in test [2], 28.8 µM (inactive); in [3], 37.9 µM (inactive); in [5], 71 µM (inactive); in test [6] it was 28.8 µM (inactive); in test [7] it was 35.2 µM (inactive). In addition, the GI50 in [8] was 16.5 µM (inactive); in test [9], 38.1 µM (inactive); in [10] it was 32.6 µM; in test [11], > 100 µM (inactive); in test [12], > 100 µM (inactive); in test [13], 30.7 µM (inactive). Moreover, the results for the GI50 in test [14] and in [16] were 32.1 µM (inactive) and 38.9 µM (inactive), respectively.
Turning to `Cc1ccc(S(=O)(=O)C2CC2(Cl)Cl)cc1` (stereo unspecified), the GI50 in test [1] was 25.6 µM (inactive); in [2], > 100 µM (inactive); in test [3], 20.7 µM (inactive); in test [4], 53.1 µM (inactive); in [5], 14.7 µM (inactive); in [6], 26.5 µM (inactive). The GI50 was 19.6 µM (inactive) in [7]; 13.9 µM (inactive) in [8]; 22 µM (inactive) in test [9]; 23.4 µM in test [10]; 18.9 µM (inactive) in test [11]; 26 µM (inactive) in test [13]. Further, the GI50 is 18.8 µM (inactive) in [14], 15.9 µM (inactive) in test [15] and 34 µM (inactive) in [16].
Take `COc1cccc(C2C(C(=O)Nc3cc(=O)n(C)c(=O)n3C)=C(C)NC(C)=C2C(=O)Nc2cc(=O)n(C)c(=O)n2C)c1O`: the GI50 in test [1], in test [2], in test [3], in test [4], in [5] and in test [6] was > 100 µM (inactive) in each case. Also, the GI50 in [7], in test [8], in [9], in [11], in [12] and in test [13] was > 100 µM (inactive) throughout. Moreover, the GI50 in test [14], in test [15] and in test [16] was > 100 µM (inactive) each time.
